This is an account of results in PMC11224359, “Stable peptide-assembled nanozyme mimicking dual antifungal actions” (Nature Communications, 2024).

Starred links: 1 amine or outer side, 2 acyl side, 3 side chain; linkers in the order of their positions; H or OH if unused. Positions of bridges follow the written chain, without caps; N, C: chain ends. Non-standard residues stand in square brackets, D forms with d. Residues, ends and D or L forms follow the SMILES beside them. No end group written: not given here. *: point of attachment. hTyr(3S-OH,4S-OH,3'-OSO3H) = N[C@H](C(=O)O)[C@H](O)[C@@H](O)c1ccc(O)c(OS(=O)(=O)O)c1; pTerphenylCO(4''-OnC5H11) = CCCCCOc1ccc(-c2ccc(-c3ccc(C(=O)*)cc3)cc2)cc1; Orn(4R-OH,5R-OH) = O=C([C@H](C[C@@H](O)[C@@H](O)N[*:3])N[*:1])[*:2]; hTyr(3S-OH,4S-OH) = N[C@H](C(=O)O)[C@H](O)[C@@H](O)c1ccc(O)cc1; Pro(3S-OH,4S-Me) = C[C@H]1CN[C@H](C(=O)O)[C@H]1O; X1 = CCCCCOc1ccc(-c2cc(-c3ccc(C(=O)*)cc3)no2)cc1; Gln(3R-OH) = NC(=O)C[C@@H](O)[C@H](N)C(=O)O; Hyp = O=C(O)[C@@H]1C[C@@H](O)CN1

One data set concerns E. coli (CMCC(B)44102). Briefly: Antibacterial activity, colony counting. In kind it is cell-based, Escherichia coli. As to the method:
(§1) The antibacterial effects of Ni-IH-7 were also evaluated with E. coli (CMCC(B)44102), S. aureus (ATCC 29213) and Methicillin-resistant Staphylococcus aureus (MRSA) (ATCC43300), G. vaginalis (ATCC14018) and metronidazole-resistant G. vaginalis (provided by Xishan People’s Hospital of Wuxi City) under the similar procedures as those for C. albicans. Initially, E. coli, S. aureus and MRSA stored at -80°C were thawed and inoculated into Luria-Bertani liquid culture medium for overnight shaking. The culture volume was 5 mL, and the incubation conditions were set at 37°C in an air incubator. The next day, E. coli, S. aureus and MRSA were transferred to fresh culture medium and incubated for 2 h to activate the bacteria. The inoculum was approximately 10^5-6 CFU mL^−1. The culture volume was 10 mL, and the conditions were maintained at 37 °C in an air incubator. The quantities of E. coli, S. aureus and MRSA could reach 10^7-8 CFU mL^−1. Mixtures of 100 µL of E. coli, S. aureus and MRSA with 100 µL of Ni-IH-7 solution were prepared in 800 µL of sterile water and incubated for 0–6 h. Subsequently, 100 µL of different dilutions of the mixture were evenly spread on Luria-Bertani agar plates, followed by incubation at 37 °C from 24 to 48 h, and colony counting assay was performed to determine antibacterial efficiency. Similarly, G. vaginalis stored at −80°C was thawed and inoculated into brain-heart infusion (BHI) medium. This BHI medium consisted of brain/heart infusion broth containing 1% gelatin, 1% yeast extract, 0.1% soluble starch, 0.1% glucose, and 10% fetal bovine serum, and the inoculation process occurred overnight. The volume of the medium used was 5 mL, and the incubation condition was set at 37 °C in an incubator with 5% CO2. Following an overnight incubation post-inoculation, the necessary amount of bacterial solution was taken and transferred into fresh medium at a ratio of 1:25. This fresh medium was then cultured at 37°C with 5% CO2 for 6–8 h until the OD600 reached approximately 0.5. Next, an appropriate quantity of the bacterial inoculum was centrifuged at 4300 × g for 5 min at 4 °C to replace the bacteria from the culture medium with an equivalent volume of sterile water. For the experimental setup, 100 µL of G. vaginalis was mixed with 900 µL of sterile water as the control group. In the experimental group, 100 µL of G. vaginalis was mixed with either Ni-IH-7 solutions, Ni(Ac)2, or metronidazole in 800 µL of sterile water. The colony counting assay was performed to determine antibacterial efficiency.

Data set [1] in a line: PLC-like activity (PLC activity Assay Kit). The class given is biochemical. As to the method:
To detect POD-like activity, 140 µL of sodium acetate buffer (pH 4.5, 0.2 M), 20 µL of 10 mM TMB, 20 µL of 1.5 mM Ni-IH-7 or 1.5 mM 4H2O·Ni(Ac)2, and 20 µL of H2O2 (50 mM) were added in order and reacted for 2 h at 37 °C. Absorbance at 652 nm was monitored using a microplate reader. PLC activity Assay Kit was used to detect PLC-like activity.

The test system of a further data set is S. aureus (ATCC 29213). Description: Antibacterial activity, colony counting. In kind it is cell-based, Staphylococcus aureus. As to the method: as §1
In the next data set the test system is G. vaginalis (ATCC14018). Description: Antibacterial activity, colony counting. The class given is cell-based, Gardnerella vaginalis. On the procedure:
as §1

Data set [2] has as its system C. albicans (ATCC10231, ATCC90028, ATCC90029). Further details: key: R: resistant; S: susceptible; DD-S: Dose dependent-susceptible. To be noted: ref ATCC; cited from earlier work. An excerpt: […] T h re e times each experiment was repeated independently with similar results. Representative images are shown. (1 picture or pasted object on this page, not shown here)

Data set [3] is described as follows: Variable temperature circular dichroism. The class given is physicochemical. To be noted: variable temperature CD, 20–95 °C. As to the method:
The Ultraviolet-visible (UV-VIS) spectroscopy of samples were collected by a Shimadzu UV-3600. For FTIR, 3 mg of powdered sample and 50 mg of potassium bromide (KBr) were mixed for tablet compression analysis with transmittance at 400–4000 cm^−1, collected using an iS10 FTIR spectrometer (USA). Measurements were performed by averaging 32 scans at 4-cm^−1 resolution (signal-to-noise ratio (S/N) = 50,000). The single-molecule STM imaging experiments were performed under ambient conditions by using a Nanoscope IIIa SPM system (Bruker, USA). 10 μL of the peptide solution was incubated on the surface of freshly cleaved highly oriented pyrolytic graphite (HOPG) at room temperature for 20 min. Then the excess peptide solution was removed from the substrate surface. The STM tips were mechanically made by Ir/Pt wires (20/80). Different STM tips and samples were used in these imaging experiments to ensure reproducibility. […] Zeta potentials of samples were determined using a Zetasizer Nano ZS90 (England) via three tests in a 1-mL sample cell. All CD datum were collected using Chirascan Plus (England) and analyzed at 190-260 nm. […] Pyridine infrared (IR) were measured at 1400–1700 cm^−1 using Thermo Scientific Nicolet 380 (USA). […] The fluorescence signals (I374nm, I394nm) were collected for detecting CMC using the pyrene probe under excitation at 330 nm across various concentrations of peptides.
For orientation: Circular dichroism is the unequal absorption of left and right circularly polarised light.

[4] abbreviates: 25 μg mL-1, in sterile water, replicate 1 of n = 3.
Where [5] appears, read: 25 μg mL-1, in sterile water, replicate 2 of n = 3.
[6] abbreviates: 25 μg mL-1, in sterile water, replicate 3 of n = 3.
The mark [7] stands for this setting: 50 μg mL-1, in sterile water, replicate 1 of n = 3.
[8] abbreviates: 50 μg mL-1, in sterile water, replicate 2 of n = 3.
Where [9] appears, read: 50 μg mL-1, in sterile water, replicate 3 of n = 3.
Setting [10] is: 100 μg mL-1, in sterile water, replicate 1 of n = 3.
[11] abbreviates: 100 μg mL-1, in sterile water, replicate 2 of n = 3.
[12] abbreviates: 100 μg mL-1, in sterile water, replicate 3 of n = 3.

As for `CC(=O)[O-].CC(=O)[O-].O.O.O.O.[Ni+2]` [Ni2+, nickel acetate], the “Antimicrobial activity toward E. coli (Figure 7a)” value with E. coli (CMCC(B)44102) (setting [4]) is listed as 6.041; in the data set with E. coli (CMCC(B)44102) (setting [5]), 6.4456; with E. coli (CMCC(B)44102) (setting [6]), 6.497; with E. coli (CMCC(B)44102) (setting [7]), 5.633; in the data set with E. coli (CMCC(B)44102) (setting [8]), 6.487; in the data set on E. coli (CMCC(B)44102) (setting [9]), 6.525. Further, the “Antimicrobial activity toward E. coli (Figure 7a)” value in the data set on E. coli (CMCC(B)44102) (setting [10]) was determined as 5.929; in the data set with E. coli (CMCC(B)44102) (setting [11]), 6.479; in the data set on E. coli (CMCC(B)44102) (setting [12]) it was 6.497. Besides, the “PLC-like activity (Figure 5d)” value in data set [1] (replicate 1 of n = 3) turned out to be 0.0001855; in data set [1] (replicate 2 of n = 3) it was 0.002181; in data set [1] (replicate 3 of n = 3), 0.003085. Moreover, the “Antimicrobial activity toward S. aureus (Figure 7b)” value in the data set on S. aureus (ATCC 29213) (setting [4]) was determined as 7.5682; with S. aureus (ATCC 29213) (setting [5]) it was 6.875; with S. aureus (ATCC 29213) (setting [6]) it was 7.049; in the data set on S. aureus (ATCC 29213) (setting [7]), 7.146; with S. aureus (ATCC 29213) (setting [8]) it was 6.498; in the data set with S. aureus (ATCC 29213) (setting [9]), 7.364. Also, the results for the “Antimicrobial activity toward S. aureus (Figure 7b)” value with S. aureus (ATCC 29213) (setting [10]), with S. aureus (ATCC 29213) (setting [11]) and with S. aureus (ATCC 29213) (setting [12]) were 6.991, 7.161 and 7.352, respectively. Further, the “Antimicrobial activity toward G. vaginalis (Figure 7c)” value in the data set on G. vaginalis (ATCC14018) (10 μg mL-1, in sterile water, replicate 1 of n = 3) worked out at 5.431; in the data set with G. vaginalis (ATCC14018) (10 μg mL-1, in sterile water, replicate 2 of n = 3) it was 5.477; in the data set with G. vaginalis (ATCC14018) (10 μg mL-1, in sterile water, replicate 3 of n = 3), 5.4624; with G. vaginalis (ATCC14018) (setting [7]) it was 5.826; in the data set with G. vaginalis (ATCC14018) (setting [8]), 5.602; with G. vaginalis (ATCC14018) (setting [9]), 5.74. Moreover, the “Antimicrobial activity toward G. vaginalis (Figure 7c)” value was 5.13 with G. vaginalis (ATCC14018) (setting [10]), 5.041 in the data set on G. vaginalis (ATCC14018) (setting [11]) and 5.1038 with G. vaginalis (ATCC14018) (setting [12]).
`C[C@@H](c1ncncc1F)[C@](O)(Cn1cncn1)c1ccc(F)cc1F` [Voriconazole]: in data set [2], the “resistance degree of C. albicans ATCC 10231” value is on record as “S”, the “resistance degree of C. albicans ATCC 90028” value is listed as “S” and the “resistance degree of C. albicans ATCC 90029” value is listed as “S”.
With `CC[C@H](C)C[C@H](C)CCCCCCCCC(=O)N[C@H]1C[C@@H](O)[C@@H](NCCN)NC(=O)[C@@H]2[C@@H](O)CCN2C(=O)[C@H]([C@H](O)CCN)NC(=O)[C@H]([C@H](O)[C@@H](O)c2ccc(O)cc2)NC(=O)[C@@H]2C[C@@H](O)CN2C(=O)[C@H]([C@@H](C)O)NC1=O` [Caspofungin], in data set [2], the “resistance degree of C. albicans ATCC 10231” value is reported as “S”, the “resistance degree of C. albicans ATCC 90028” value is reported as “S” and the “resistance degree of C. albicans ATCC 90029” value is “S”.
Turning to `OC(Cn1cncn1)(Cn1cncn1)c1ccc(F)cc1F` [Fluconazole], in data set [2], the “resistance degree of C. albicans ATCC 10231” value was “R”, the “resistance degree of C. albicans ATCC 90028” value is “S” and the “resistance degree of C. albicans ATCC 90029” value is reported as “S”.
For `Nc1nc(=O)[nH]cc1F` [5-Flucytosine], in data set [2], the “resistance degree of C. albicans ATCC 10231” value is given as “S”, the “resistance degree of C. albicans ATCC 90028” value is listed as “S” and the “resistance degree of C. albicans ATCC 90029” value is given as “R”.
With `CCCCCOc1ccc(-c2ccc(-c3ccc(C(=O)N[C@H]4C[C@@H](O)[C@@H](O)NC(=O)[C@@H]5[C@@H](O)[C@@H](C)CN5C(=O)[C@H]([C@@H](C)O)NC(=O)[C@H]([C@H](O)[C@@H](O)c5ccc(O)cc5)NC(=O)[C@@H]5C[C@@H](O)CN5C(=O)[C@H]([C@@H](C)O)NC4=O)cc3)cc2)cc1` [Anidulafungin] ({pTerphenylCO(4''-OnC5H11)}-[Orn(4R-OH,5R-OH)]T[Hyp][hTyr(3S-OH,4S-OH)]T[Pro(3S-OH,4S-Me)]; lactam 1-C), in data set [2], the “resistance degree of C. albicans ATCC 10231” value is reported as “R”, the “resistance degree of C. albicans ATCC 90028” value is listed as “S” and the “resistance degree of C. albicans ATCC 90029” value is recorded as “S”.
Turning to `CCCCCOc1ccc(-c2cc(-c3ccc(C(=O)N[C@H]4C[C@@H](O)[C@@H](O)NC(=O)[C@@H]5[C@@H](O)[C@@H](C)CN5C(=O)[C@H]([C@H](O)CC(N)=O)NC(=O)[C@H]([C@H](O)[C@@H](O)c5ccc(O)c(OS(=O)(=O)O)c5)NC(=O)[C@@H]5C[C@@H](O)CN5C(=O)[C@H]([C@@H](C)O)NC4=O)cc3)no2)cc1` [Micafungin] (X1-[Orn(4R-OH,5R-OH)]T[Hyp][hTyr(3S-OH,4S-OH,3'-OSO3H)][Gln(3R-OH)][Pro(3S-OH,4S-Me)]; lactam 1-C), in data set [2], the “resistance degree of C. albicans ATCC 10231” value is “S”, the “resistance degree of C. albicans ATCC 90028” value was “S” and the “resistance degree of C. albicans ATCC 90029” value was “S”.
As for IHIHICI [IH-7], the “thermal stability of conformation” value in data set [3] was “changed from random coil at low temperature to α-helix at high temperature”.
Consider `CCC(C)n1ncn(-c2ccc(N3CCN(c4ccc(OCC5COC(Cn6cncn6)(c6ccc(Cl)cc6Cl)O5)cc4)CC3)cc2)c1=O` (stereo not shown) [Itraconazole], for which, in data set [2], the “resistance degree of C. albicans ATCC 10231” value is recorded as “R”, the “resistance degree of C. albicans ATCC 90028” value was “DD-S” and the “resistance degree of C. albicans ATCC 90029” value was “S”.
